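All cell lines were grown in 96-well plates and treated with compound for 48 hours. The concentration for full growth arrest is given as TGI.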
Columns and labels:
Assay in all cases: DTP human tumour cell line panel, 48 h
OVCAR-5 ovarian = test system: OVCAR-5 ovarian
M14 melanoma = test system: M14 melanoma
UACC-257 melanoma = test system: UACC-257 melanoma
RXF 393 renal = test system: RXF 393 renal
LOX IMVI melanoma = test system: LOX IMVI melanoma
SK-OV-3 ovarian = test system: SK-OV-3 ovarian
T-47D breast = test system: T-47D breast
NCI-H226 lung = test system: NCI-H226 lung
MALME-3M melanoma = test system: MALME-3M melanoma
EKVX NSCLC = test system: EKVX NSCLC
OVCAR-3 ovarian = test system: OVCAR-3 ovarian
KM12 colon = test system: KM12 colon
TK-10 renal = test system: TK-10 renal
OVCAR-8 ovarian = test system: OVCAR-8 ovarian
BT-549 breast = test system: BT-549 breast
HOP-92 NSCLC = test system: HOP-92 NSCLC
HCC-2998 colon = test system: HCC-2998 colon
MDA-MB-435 = test system: MDA-MB-435
DU-145 prostate = test system: DU-145 prostate
SW-620 colon = test system: SW-620 colon
OVCAR-4 ovarian = test system: OVCAR-4 ovarian
HT29 colon = test system: HT29 colon
SK-MEL-2 melanoma = test system: SK-MEL-2 melanoma
786-0 renal = test system: 786-0 renal
SK-MEL-28 melanoma = test system: SK-MEL-28 melanoma
IGROV1 ovarian = test system: IGROV1 ovarian
SNB-19 CNS = test system: SNB-19 CNS
SNB-75 CNS = test system: SNB-75 CNS
CCRF-CEM leukemia = test system: CCRF-CEM leukemia
HCT-116 colon = test system: HCT-116 colon
COLO 205 colon = test system: COLO 205 colon
HCT-15 colon = test system: HCT-15 colon
SF-295 CNS = test system: SF-295 CNS
NCI-H23 lung = test system: NCI-H23 lung
A549 NSCLC = test system: A549 NSCLC
ACHN renal = test system: ACHN renal
NCI/ADR-RES ovarian = test system: NCI/ADR-RES ovarian
MCF7 breast = test system: MCF7 breast
NCI-H460 lung = test system: NCI-H460 lung
SF-268 CNS = test system: SF-268 CNS
UO-31 renal = test system: UO-31 renal
SN12C renal = test system: SN12C renal
RPMI-8226 leukemia = test system: RPMI-8226 leukemia
CAKI-1 renal = test system: CAKI-1 renal
PC-3 prostate = test system: PC-3 prostate
UACC-62 melanoma = test system: UACC-62 melanoma
SF-539 CNS = test system: SF-539 CNS
K-562 leukemia = test system: K-562 leukemia
U251 CNS = test system: U251 CNS
SK-MEL-5 melanoma = test system: SK-MEL-5 melanoma
NCI-H522 lung = test system: NCI-H522 lung
HL-60(TB) leukemia = test system: HL-60(TB) leukemia
HOP-62 NSCLC = test system: HOP-62 NSCLC
SR leukemia = test system: SR leukemia

Measured: TGI

COc1ccc(OC)c2c3c([nH]c12)C(=O)Nc1nc(N)nc(N)c1C3
> 100 µM: OVCAR-5 ovarian | M14 melanoma | UACC-257 melanoma | RXF 393 renal | LOX IMVI melanoma | SK-OV-3 ovarian | T-47D breast | NCI-H226 lung | MALME-3M melanoma | EKVX NSCLC | OVCAR-3 ovarian | KM12 colon | TK-10 renal | OVCAR-8 ovarian | BT-549 breast | HOP-92 NSCLC | HCC-2998 colon | MDA-MB-435 | DU-145 prostate | SW-620 colon | OVCAR-4 ovarian | SK-MEL-2 melanoma | 786-0 renal | SK-MEL-28 melanoma
4.49 µM: HT29 colon

O=c1c2cc(I)ccc2nc(-c2cccs2)n1/N=C/c1ccccc1
not listed: MALME-3M melanoma
> 100 µM: all other assays above
